From patent US12071453B2, “Neuroactive steroids, compositions, and uses thereof” (Sage Therapeutics, Inc., priority 2013, dated 2024)

Columns and labels:
[1] = target: [35S]-TBPS binding in rat brain cortical membranes; test: Steroid inhibition of [35S]-TBPS binding, rat brain cortical membranes; details: 3 nM [35S]-TBPS, in the presence of 5 μM GABA, read-out: 35S-TBPS Radioligand Displacement (IC50)
Description: TBPS binding assays using rat brain cortical membranes in the presence of 5 μM GABA has been described (Gee et al, J. Pharmacol. Exp. Ther. 1987, 241, 346-353; Hawkinson et al, Mol. Pharmacol. 1994, 46, 977-985; Lewin, A. H et al., Mol. Pharmacol. 1989, 35, 189-194).
Briefly, cortices are rapidly removed following decapitation of carbon dioxide-anesthetized Sprague-Dawley rats (200-250 g). The cortices are homogenized in 10 volumes of ice-cold 0.32 M sucrose using a glass/teflon homogenizer and centrifuged at 1500×g for 10 min at 4° C. The resultant supernatants are centrifuged at 10,000×g for 20 min at 4° C. to obtain the P2 pellets. The P2 pellets are resuspended in 200 mM NaCl/50 mM Na—K phosphate pH 7.4 buffer and centrifuged at 10,000×g for 10 min at 4° C. This washing procedure is repeated twice and the pellets are resuspended in 10 volumes of buffer. Aliquots (100 μL) of the membrane suspensions are incubated with 3 nM [^35S]-TBPS and 5 μL aliquots of test drug dissolved in dimethyl sulfoxide (DMSO) (final 0.5%) in the presence of 5 μM GABA. The incubation is brought to a final volume of 1.0 mL with buffer. Nonspecific binding is determined in the presence of 2 μM unlabeled TBPS and ranged from 15 to 25%. Following a 90 min incubation at room temp, the assays are terminated by filtration through glass fiber filters (Schleicher and Schuell No. 32) using a cell harvester (Brandel) and rinsed three times with ice-cold buffer. Filter bound radioactivity is measured by liquid scintillation spectrometry. Non-linear curve fitting of the overall data for each drug averaged for each concentration is done using Prism (GraphPad). […] The concentration of test compound producing 50% inhibition (IC50) of specific binding and the maximal extent of inhibition (Imax) are determined for the individual experiments with the same model used for the overall data and then the mean±SEM.s of the individual experiments are calculated.
Various compounds are or can be screened to determine their potential as modulators of [^35S]-TBPS binding in vitro. These assays are or can be performed in accordance with the above discussed procedures.

[2] = target: T1, GABAA receptors composed of the α1β2γ2 subunits (GABRA1/GABRB2/GABRG2) (Homo sapiens, UniProt P14867+P47870); test: Two Electrode Voltage Clamp (TEVC), GABA receptor potentiation in Xenopus laevis oocytes, α1β2γ2; assay type: cell-based; details: 10 μM compound, 10 μM GABA, read-out: GABA (α1β2γ2) % efficacy at 10 μM
T1 construct: expressed in transfected cells; host or cells: Xenopus laevis oocytes, injected (ratio 1:1:1)
Description: The Two Electrode Voltage Clamp (TEVC) technique was used to investigate the effects of compounds at a concentration of 10 μM on GABAA receptors composed of the α1β2γ2 or α4β3δ subunits expressed in oocytes from the Xenopus laevis. GABA-evoked currents were recorded from oocytes that expressed the GABA receptors and the modulatory effects of the test items on these currents were investigated.
Ovaries were harvested from Xenopus laevis females that had been deeply anesthetized by cooling at 4° C. and immersion in Tricaine methanesulfonate (MS-222 at a concentration of 150 mg/L) in sodium bicarbonate (300 mg/L). Once anesthetized the animal was decapitated and pithed following the rules of animal rights from the Geneva canton. A small piece of ovary was isolated for immediate preparation while the remaining part was placed at 4° C. in a sterile Barth solution containing in mM NaCl 88, KCl 1, NaHCO3 2.4, HEPES 10, MgSO4·7H2O 0.82, Ca(NO3)2·4H2O 0.33, CaCl2·6H2O 0.41, at pH 7.4, and supplemented with 20 μg/ml of kanamycin, 100 unit/ml penicillin and 100 μg/ml streptomycin. All recordings were performed at 18° C. and cells were super-fused with medium containing in mM: NaCl 82.5, KCl 2.5, HEPES 5, CaCl2·2H2O, ·6H2O 1, pH 7.4.
Plasmids containing the RNAs of the human GABRA1/GABRB2/GABRG2 and GABRA4/GABRB3/GABRD genes were injected into oocytes using a proprietary automated injection device (Hogg el al., J. Neurosci. Methods, (2008) 169: 65-75). These genes encode for the α1β2γ2 and α4β3δ GABAA subunits respectively. Receptor expression was assessed using electrophysiology at least two days later. The ratio of RNA injection for α1β2γ2 was 1:1:1 and for α4β3δ was 5:1:5. Electrophysiological recordings were made using an automated process equipped with standard TEVC and data were captured and analyzed using a proprietary data acquisition and analysis software running under Matlab (Mathworks Inc.). The membrane potential of the oocytes was maintained at −80 mV throughout the experiments. To explore the effects of proprietary compounds, currents were evoked by applying 10 μM (α1β2γ2) or 3 μM (α4β3δ) GABA for 30 s. These concentrations approximated the EC50 concentration of GABA at each receptor subtype. Oocytes were then re-exposed to GABA again for 30 s. 15 s after beginning the GABA application, test article was co-applied at a concentration of 10 μM for 15 s. Potentiation of the peak current was assessed. Data was filtered at 10 Hz, captured at 100 Hz and analyzed using proprietary data acquisition and analysis software running under Matlab (Mathworks Inc.). For statistical analysis values were computed either with Excel (Microsoft) or Matlab (mathworks Inc.). To obtain mean measurements with standard deviations, all experiments were carried out using at least three cells.

T1 sequence (P14867 28-456): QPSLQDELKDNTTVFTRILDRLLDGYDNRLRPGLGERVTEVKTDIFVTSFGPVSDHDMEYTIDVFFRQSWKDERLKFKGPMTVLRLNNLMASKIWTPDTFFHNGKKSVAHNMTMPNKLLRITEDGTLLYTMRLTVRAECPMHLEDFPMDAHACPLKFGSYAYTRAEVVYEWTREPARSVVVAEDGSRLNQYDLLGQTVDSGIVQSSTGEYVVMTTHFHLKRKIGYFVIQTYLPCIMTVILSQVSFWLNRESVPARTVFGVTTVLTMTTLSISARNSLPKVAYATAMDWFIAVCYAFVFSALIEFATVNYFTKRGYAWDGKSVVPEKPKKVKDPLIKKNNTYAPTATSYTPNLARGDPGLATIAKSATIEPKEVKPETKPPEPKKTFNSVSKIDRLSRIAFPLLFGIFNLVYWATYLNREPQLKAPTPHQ
T1 sequence (P47870 26-512): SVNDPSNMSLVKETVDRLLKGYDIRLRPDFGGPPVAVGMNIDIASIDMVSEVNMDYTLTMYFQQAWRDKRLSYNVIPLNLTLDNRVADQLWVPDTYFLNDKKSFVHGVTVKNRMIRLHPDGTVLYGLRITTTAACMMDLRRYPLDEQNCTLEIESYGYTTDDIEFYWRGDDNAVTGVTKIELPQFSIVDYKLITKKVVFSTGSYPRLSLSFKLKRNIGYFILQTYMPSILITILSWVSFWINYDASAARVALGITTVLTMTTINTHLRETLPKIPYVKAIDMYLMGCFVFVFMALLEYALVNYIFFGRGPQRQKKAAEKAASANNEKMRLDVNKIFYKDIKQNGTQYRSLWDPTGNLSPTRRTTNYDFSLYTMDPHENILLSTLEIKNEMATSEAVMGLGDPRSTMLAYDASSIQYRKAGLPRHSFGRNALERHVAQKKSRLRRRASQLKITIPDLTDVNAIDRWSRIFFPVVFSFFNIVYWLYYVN
T1 sequence (P18507 40-475 partner): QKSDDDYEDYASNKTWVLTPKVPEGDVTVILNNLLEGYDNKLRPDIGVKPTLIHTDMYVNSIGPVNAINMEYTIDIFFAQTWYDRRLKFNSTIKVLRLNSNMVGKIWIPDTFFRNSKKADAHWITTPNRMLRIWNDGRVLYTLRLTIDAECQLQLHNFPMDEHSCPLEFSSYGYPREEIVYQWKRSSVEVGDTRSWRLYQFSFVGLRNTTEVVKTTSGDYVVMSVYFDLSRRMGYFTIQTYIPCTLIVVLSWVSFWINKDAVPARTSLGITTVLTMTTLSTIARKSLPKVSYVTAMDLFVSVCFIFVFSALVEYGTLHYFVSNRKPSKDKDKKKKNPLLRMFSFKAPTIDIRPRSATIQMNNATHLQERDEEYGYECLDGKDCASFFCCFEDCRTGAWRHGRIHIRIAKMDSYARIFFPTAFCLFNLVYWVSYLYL

SMILES | IC50 [1] [nM] | Emax at 10 µM [2] [%]
COC[C@]12CC[C@@](C)(O)C[C@H]1CC[C@H]1[C@@H]3CC[C@H](C(=O)Cn4nccn4)[C@@]3(C)CC[C@@H]12 [Compound 31] | 10 to 50 | 500 to 1000
COC[C@]12CC[C@@](C)(O)C[C@@H]1CC[C@H]1[C@@H]3CC[C@H](C(=O)Cn4ncc5ncccc54)[C@@]3(C)CC[C@@H]12 [Compound 38] | 50 to 100 | 500 to 1000
COC[C@]12CC[C@@](C)(O)C[C@@H]1CC[C@H]1[C@@H]3CC[C@H](C(=O)Cn4nnc5ccccc54)[C@@]3(C)CC[C@@H]12 [Compound 39] | 10 to 50 | 500 to 1000
COC[C@]12CC[C@@](C)(O)C[C@@H]1CC[C@H]1[C@@H]3CC[C@H](C(=O)Cn4nnc5ccc(F)cc54)[C@@]3(C)CC[C@@H]12 [Compound 41] | 10 to 50 | 1000 to 1500
COC[C@]12CC[C@@](C)(O)C[C@@H]1CC[C@H]1[C@@H]3CC[C@H](C(=O)Cn4nnc5cc(F)ccc54)[C@@]3(C)CC[C@@H]12 [Compound 42] | 10 to 50 | 500 to 1000
COC[C@]12CC[C@@](C)(O)C[C@@H]1CC[C@H]1[C@@H]3CC[C@H](C(=O)Cn4cc5ccncc5n4)[C@@]3(C)CC[C@@H]12 [Compound 44] | 10 to 50 | 1000 to 1500
COC[C@]12CC[C@@](C)(O)C[C@@H]1CC[C@H]1[C@@H]3CC[C@H](C(=O)Cn4cnc5ccccc54)[C@@]3(C)CC[C@@H]12 [Compound 46] | 50 to 100 | 1000 to 1500
COC[C@]12CC[C@@](C)(O)C[C@@H]1CC[C@H]1[C@@H]3CC[C@H](C(=O)Cn4nc5cccc(F)c5n4)[C@@]3(C)CC[C@@H]12 [Compound 49] | 10 to 50 | 500 to 1000
COC[C@]12CC[C@@](C)(O)C[C@@H]1CC[C@H]1[C@@H]3CC[C@H](C(=O)Cn4nc5ccc(OC)cc5n4)[C@@]3(C)CC[C@@H]12 [Compound 50] | 10 to 50 | 500 to 1000
COC[C@]12CC[C@@](C)(O)C[C@@H]1CC[C@H]1[C@@H]3CC[C@H](C(=O)Cn4nnc5c(F)c(F)ccc54)[C@@]3(C)CC[C@@H]12 [Compound 53] | 50 to 100 | 50 to 500
COC[C@]12CC[C@@](C)(O)C[C@@H]1CC[C@H]1[C@@H]3CC[C@H](C(=O)Cn4nnc5c(F)cc(F)cc54)[C@@]3(C)CC[C@@H]12 [Compound 56] | 50 to 100 | 50 to 500
COC[C@]12CC[C@@](C)(O)C[C@@H]1CC[C@H]1[C@@H]3CC[C@H](C(=O)Cn4nnc5c(Cl)cccc54)[C@@]3(C)CC[C@@H]12 [Compound 60] | 10 to 50 | 50 to 500
COC[C@]12CC[C@@](C)(O)C[C@@H]1CC[C@H]1[C@@H]3CC[C@H](C(=O)Cn4nc5cccc(Cl)c5n4)[C@@]3(C)CC[C@@H]12 [Compound 61] | < 10 | 500 to 1000
COC[C@]12CC[C@@](C)(O)C[C@@H]1CC[C@H]1[C@@H]3CC[C@H](C(=O)Cn4nnc5c(OC)c(OC)ccc54)[C@@]3(C)CC[C@@H]12 [Compound 63] | 10 to 50 | 500 to 1000
COC[C@]12CC[C@@](C)(O)C[C@@H]1CC[C@H]1[C@@H]3CC[C@H](C(=O)Cn4nc5cc(OC)cc(OC)c5n4)[C@@]3(C)CC[C@@H]12 [Compound 65] | < 10 | 500 to 1000
COC[C@]12CC[C@@](C)(O)C[C@H]1CC[C@H]1[C@@H]3CC[C@H](C(=O)Cn4nc5ccc(F)cc5n4)[C@@]3(C)CC[C@@H]12 [Compound 73] | < 10 | 500 to 1000
COC[C@]12CC[C@@](C)(O)C[C@H]1CC[C@H]1[C@@H]3CC[C@H](C(=O)Cn4nnc5ccc(F)cc54)[C@@]3(C)CC[C@@H]12 [Compound 74] | < 10 | 500 to 1000
COC[C@]12CC[C@@](C)(O)C[C@H]1CC[C@H]1[C@@H]3CC[C@H](C(=O)Cn4nnc5cc(F)ccc54)[C@@]3(C)CC[C@@H]12 [Compound 75] | 10 to 50 | 500 to 1000
COC[C@]12CC[C@@](C)(O)C[C@H]1CC[C@H]1[C@@H]3CC[C@H](C(=O)Cn4nnc5ccc(F)c(F)c54)[C@@]3(C)CC[C@@H]12 [Compound 77] | < 10 | 1000 to 1500
COC[C@]12CC[C@@](C)(O)C[C@H]1CC[C@H]1[C@@H]3CC[C@H](C(=O)Cn4cnc5ccccc54)[C@@]3(C)CC[C@@H]12 [Compound 80] | 10 to 50 | 500 to 1000
COC[C@]12CC[C@@](C)(O)C[C@H]1CC[C@H]1[C@@H]3CC[C@H](C(=O)Cn4nnc5cccc(F)c54)[C@@]3(C)CC[C@@H]12 [Compound 81] | 10 to 50 | 500 to 1000
COC[C@]12CC[C@@](C)(O)C[C@H]1CC[C@H]1[C@@H]3CC[C@H](C(=O)Cn4nc5cccc(F)c5n4)[C@@]3(C)CC[C@@H]12 [Compound 83] | < 10 | 1000 to 1500
COC[C@]12CC[C@@](C)(O)C[C@@H]1CC[C@H]1[C@@H]3CC[C@H](C(=O)Cn4nc5cc(F)c(F)cc5n4)[C@@]3(C)CC[C@@H]12 [Compound 97] | 10 to 50 | 500 to 1000
COC[C@]12CC[C@@](C)(O)C[C@@H]1CC[C@H]1[C@@H]3CC[C@H](C(=O)Cn4nc5cc(Cl)cnc5n4)[C@@]3(C)CC[C@@H]12 [Compound 99] | 10 to 50 | 1000 to 1500
COC[C@]12CC[C@@](C)(O)C[C@@H]1CC[C@H]1[C@@H]3CC[C@H](C(=O)Cn4nnc5cc(Cl)cnc54)[C@@]3(C)CC[C@@H]12 [Compound 100] | 100 to 500 | 500 to 1000
COC[C@]12CC[C@@](C)(O)C[C@@H]1CC[C@H]1[C@@H]3CC[C@H](C(=O)Cn4nnc5ncc(Cl)cc54)[C@@]3(C)CC[C@@H]12 [Compound 101] | 10 to 50 | 500 to 1000
COC[C@]12CC[C@@](C)(O)C[C@@H]1CC[C@H]1[C@@H]3CC[C@H](C(=O)Cn4cc5nccnc5n4)[C@@]3(C)CC[C@@H]12 [Compound 103] | > 500 | 1000 to 1500
COC[C@]12CC[C@@](C)(O)C[C@@H]1CC[C@H]1[C@@H]3CC[C@H](C(=O)Cn4ncc5cc(F)ccc54)[C@@]3(C)CC[C@@H]12 [Compound 107] | > 500 | 500 to 1000
COC[C@]12CC[C@@](C)(O)C[C@@H]1CC[C@H]1[C@@H]3CC[C@H](C(=O)Cn4ncc5ccc(F)cc54)[C@@]3(C)CC[C@@H]12 [Compound 110] | 50 to 100 | 500 to 1000
